# From PubChem BioAssay (NCI)
#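 Compound exposure: 48 hours, 5 concentrations, 96-well plates. Definition used: TGI = concentration required for complete inhibition of growth.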
# How the values were obtained:
# Assay in all cases: NCI tumour cell line growth inhibition, 48 h
# [1] = tested on: DMS 114 small cell lung
# [2] = tested on: XF 498 CNS
# [3] = tested on: DLD-1 colon
# [4] = tested on: P388 leukemia
# [5] = tested on: SN12K1 renal
# [6] = tested on: P388/ADR leukemia
# [7] = tested on: RXF-631 renal
# [8] = tested on: HOP-18 NSCLC
SMILES,TGI [1],TGI [2],TGI [3],TGI [4],TGI [5],TGI [6],TGI [7],TGI [8]
CCCC(=O)N[C@@H](Cc1cc(I)c(O)c(I)c1)C(=O)NCCCNCCCCNCCCNC(=O)[C@@H](N)CCCN=C(N)N,> 100 µM,> 100 µM,–,–,–,–,–,–
CC(=O)/C=C/c1c[nH]c(=O)[nH]c1=O,585 µM,151 µM,790 µM,718 µM,341 µM,893 µM,–,–
Cc1ccc(S(=O)(=O)OCC23CCC(C4CC42)C2CC23)cc1 (stereo unspecified),> 100 µM,–,> 100 µM,–,–,–,> 100 µM,> 100 µM
CCCN(CCC)C(=O)Cc1c2n(c3ccccc13)Cc1ccccc1-2,> 100 µM,> 100 µM,> 100 µM,–,–,–,–,> 100 µM
O=C(c1ccc(Cl)cc1)N(C(=S)N1CCN(c2ccccc2)CC1)c1ccccc1,–,–,> 100 µM,–,–,–,–,> 100 µM
Nc1ccccc1Sc1ccc(Cl)cc1,59.3 µM,–,> 100 µM,–,–,–,–,> 100 µM
